# According to patent US4514403A, “Hydrouracil compounds” (Yoshitomi Pharmaceutical Industries Ltd., priority 1980, dated 1985):
# Structures can show the parent of a compound that is named as a salt.
# How the values were obtained:
# [1] = Phenylquinone writhing test; details: for ED50: Mus musculus, read-out: Phenylquinone Writhing Test ED50; for Inhibition (%) of Occurrence of Pain: mice, 0.5 mg/kg s.c.
# Method: (§1) Phenylquinone writhing test, electric stimuli test, tooth pulp nociception test, hot plate test and AgNO3 arthritis test were performed according to the methods described by Y. Marayama et al. in "Arzneimittel-Forschung", 28 (11), 2102-2107 (1978), and bradykinin nociception test was performed by the method described by G. F. Blane in "Journal of Pharmacy and Pharmacology", 19, 367-373 (1967).
# AgNO3 arthritis test = details: for ED50: Rattus norvegicus, sc, read-out: AgNO3 Arthritis Test ED50; for Inhibition (%) of Occurrence of Pain: rats, 5 mg/kg s.c.
# [2] = tested on: evoked potentials in central nervous system; test: Effect on the various evoked potentials in central nervous system; format: in vivo, Male Wistar rats; design: key to Amplitude of Evoked Responses, VP-COR / Amplitude of Evoked Responses, HIP-AMY / Amplitude of Evoked Responses, HIP-SEP: -: No change; --: No change; (+): Levallorphan antagonism; (-): Levallorphan antagonism
# Method: Male Wistar rats, weighing 300-350 g, were used under ethyl ether anesthesia. The trachea and femoral vein were cannulated for artificial respiration and drug injection, respectively. Immobilization of the rat was maintained by gallamine thioethiodide (10 mg/kg) given intravenously every one hours. All wound edges were infiltration with carbocaine hydrochloride. The experiments began after at least 2 hours had elapsed from discontinuance of ether anesthesia. The COR (somatosensory cortex) evoked potentials by VP (neucleus ventralis posterior thalamus) stimulation (VP - COR evoked potential) were recorded from somatosensory cortex, through a silver electrode applied directly to the cortex. In order to record VP and MRF (midbrain reticular formation) evoked potentials by sciatic nerve stimulation or AMY (amygdala) and SEP (septum) evoked potentials by HIP (hippocampus) stimulation, bipolar stainless steel electrodes were stereotaxically placed into the VP, MRF, AMY, SEP and HIP. The stimuli were delivered to various sites every 2 seconds from a stimulation and consisted of 0.1 msec rectangular pulses (twice threshold intensity). The evoked responses were visualized on an oscilloscope. All records were made up of 20 superimposed tracings.
# Electric stimuli test = details: for ED50: Mus musculus, read-out: Electric Stimuli Test ED50
# in vivo = details: rat
# [3] = Bradykinin nociception test; details: for ED50: Rattus norvegicus, read-out: Bradykinin Nociception Test ED50; for Inhibition (%) of Occurrence of Pain: rats, 2.5 mg/kg s.c.
# [4] = rats; withdrawal
# Tolerance test = format: in vivo; details: continuous administration
# Hot plate test = details: Rattus norvegicus, sc, read-out: Hot Plate Test ED50
# Method: as §1
# [5] = Tooth pulp nociception test
# Method: as §1
# Mouse jumping test = details: administration at a lethal dose
# central nervous system = test: Activity on central nervous system; details: in vivo
# [6] = tested on: ventro-medial hypothalamus; test: Effect on the aggressive-defense reaction produced by electrical stimulation at the ventro-medial hypothalamus of cats; format: in vivo; details: for Threshold of current, Ear-flattening / Threshold of current, Growling / Threshold of current, Retreat with provocation / Threshold of current, Pupil dilatation: standard current = 100
# Method: The latter used the double-walled cannula method which permitted electrical and chemical stimulation at the same locus in brain. H. Nakao et al. in "Integrative Control Functions of the Brain", vol. […] Similar studies have been done using serotonin by L. H. Allikmets in "Pavlov Journal of High Nervous Activity", 22, 597-602 (1972) and using chlorpromazine, haloperidol, pentobarbital and diazepam by H. Maeda in "Folia Psychiatrica et Neurologica Japonica", 30, 539-546 (1976).
# Alternatively 30 mg/kg of Test compound B was injected subcutaneously.
# [7] = calculated from inhibition (%) in a low dose
compound,measurement,setting,value
"Cc1c(N(C)C)c(=O)n(-c2ccccc2)n1C [Aminopyrine, reference compound]",ED50,[1]; po,92 mg/kg
same,ED50,[1]; sc,16 mg/kg
same,ED50,AgNO3 arthritis test,170 mg/kg
same,"Amplitude of Evoked Responses, HIP-AMY",[2]; 10 mg/kg i.v.,--
same,"Amplitude of Evoked Responses, HIP-SEP",[2]; 10 mg/kg i.v.,--
same,"Amplitude of Evoked Responses, VP-COR",[2]; 10 mg/kg i.v.,--
same,"Amplitude of Evoked Responses, HIP-AMY",[2]; 25 mg/kg i.v.,--
same,"Amplitude of Evoked Responses, HIP-SEP",[2]; 25 mg/kg i.v.,--
same,"Amplitude of Evoked Responses, HIP-AMY",[2]; 50 mg/kg i.v.,--
same,"Amplitude of Evoked Responses, HIP-SEP",[2]; 50 mg/kg i.v.,--
same,ED50,Electric stimuli test; po,315 mg/kg
same,ED50,Electric stimuli test; sc,100 mg/kg
same,LD50,in vivo; ip,248 mg/kg
same,LD50,in vivo; po,1050 mg/kg
same,ED50,[3]; sc,30 mg/kg
"COc1ccc2c3c1O[C@H]1[C@@H](O)C=C[C@H]4[C@@H](C2)N(C)CC[C@@]341 [Codeine, reference compound]",body weight reduction,[4],remarkably reduced
same,tolerance (decrease of effects),Tolerance test,caused a clear tolerance
CN1CC[C@]23c4c5ccc(O)c4O[C@H]2[C@@H](O)C=C[C@H]3[C@H]1C5 [Morphine],ED50,[1]; po,2.1 mg/kg
same,ED50,[1]; sc,0.4 mg/kg
same,Inhibition (%) of Occurrence of Pain,[1],78%
same,ED50,AgNO3 arthritis test,0.8 mg/kg
same,Inhibition (%) of Occurrence of Pain,AgNO3 arthritis test,100%
same,ED50,Electric stimuli test; sc,3 mg/kg
same,Electric Stimuli Test ED50,"Electric stimuli test; mice, p.o.",17 mg/kg
same,ED50,Hot plate test,4 mg/kg
same,ED50,[3]; po,50 mg/kg
same,ED50,[3]; sc,6 mg/kg
same,Inhibition (%) of Occurrence of Pain,[3],17%
CC(C)=CCN1CCC2(C)c3cc(O)ccc3CC1C2C (stereo not shown) [Pentazocine],ED50,[1]; po,18 mg/kg
same,ED50,[1]; sc,1.3 mg/kg
same,"Relative potency (Test compound A = 1), Phenylquinone Writhing Test",[1]; calculated from ED50,0.77
same,"Relative potency (Test compound A = 1), Phenylquinone Writhing Test",[1]; [7],0.31
same,Inhibition (%) of Occurrence of Pain,[1],15%
same,ED50,AgNO3 arthritis test,10 mg/kg
same,"Relative potency (Test compound A = 1), AgNO3 Arthritis Test",AgNO3 arthritis test; calculated from ED50,0.7
same,"Relative potency (Test compound A = 1), AgNO3 Arthritis Test",AgNO3 arthritis test; [7],0.78
same,Inhibition (%) of Occurrence of Pain,AgNO3 arthritis test,33%
same,ED50,Electric stimuli test; po,178 mg/kg
same,ED50,Electric stimuli test; sc,23 mg/kg
same,ED50,Hot plate test,30 mg/kg
same,LD50,in vivo; po,1100 mg/kg
same,LD50,in vivo; sc,270 mg/kg
same,"Relative potency (Test compound A = 1), Tooth Pulp Nociception Test",[5]; calculated from ED50,0.82
same,"Relative potency (Test compound A = 1), Tooth Pulp Nociception Test",[5]; [7],0.59
same,increasing rate in threshold,"[5]; rabbits, 2.5 mg/kg i.v.",44%
same,ED50,[3]; po,100 mg/kg
same,ED50,[3]; sc,8 mg/kg
same,"Relative potency (Test compound A = 1), Bradykinin Nociception Test",[3]; calculated from ED50,0.5
same,"Relative potency (Test compound A = 1), Bradykinin Nociception Test",[3]; [7],0.34
same,Inhibition (%) of Occurrence of Pain,[3],13%
"CCOC(=O)C1(c2ccccc2)CCN(C)CC1 [Pethidine, reference compound]","Amplitude of Evoked Responses, HIP-SEP",[2]; 5 mg/kg i.v.,--
same,"Amplitude of Evoked Responses, VP-COR",[2]; 5 mg/kg i.v.,--
same,"Amplitude of Evoked Responses, HIP-SEP",[2]; 10 mg/kg i.v.,--
"O=C1CCN(C2CCN(CC=Cc3ccccc3)CC2)C(=O)N1 [Test compound B, 1-(1-cinnamyl-4-piperidyl)hydrouracil hydrochloride]",ED50,[1]; po,18 mg/kg
same,ED50,[1]; sc,7.8 mg/kg
same,ED50,AgNO3 arthritis test,25 mg/kg
same,jumping symptom,Mouse jumping test,did not cause any jumping symptom
same,ED50,Electric stimuli test; po,200 mg/kg
same,ED50,Electric stimuli test; sc,40 mg/kg
same,ED50,Hot plate test,90 mg/kg
same,LD50,in vivo; ip,150 mg/kg
same,LD50,in vivo; po,1200 mg/kg
same,LD50,in vivo; sc,500 mg/kg
same,muscle relaxant activity,central nervous system,did not show practically such activities
same,reserpine potentiating activity,central nervous system,did not show practically such activities
same,suppression of spontaneous locomotor activity,central nervous system,did not show practically such activities
same,"Threshold of current, Ear-flattening","[6]; 30 mg/kg s.c., 0 min",100
same,"Threshold of current, Growling","[6]; 30 mg/kg s.c., 0 min",100
same,"Threshold of current, Retreat with provocation","[6]; 30 mg/kg s.c., 0 min",100
same,"Threshold of current, Ear-flattening","[6]; 30 mg/kg s.c., 70 min",120
same,"Threshold of current, Growling","[6]; 30 mg/kg s.c., 70 min",177
same,"Threshold of current, Retreat with provocation","[6]; 30 mg/kg s.c., 70 min",142
same,"Threshold of current, Ear-flattening","[6]; 30 mg/kg s.c., 110 min",105
same,"Threshold of current, Growling","[6]; 30 mg/kg s.c., 110 min",184
same,"Threshold of current, Retreat with provocation","[6]; 30 mg/kg s.c., 110 min",127
same,duration for which the threshold of responses was raised,[6]; 30 mg/kg subcutaneously,over 2 hours
same,rage behaviour with provocation by the experimenter,[6]; 30 mg/kg subcutaneously,did not show rage behaviour
same,duration for which the threshold of current was raised,[6]; 10^-6 g in 0.5 μl through double-walled cannula,60 min
same,"Threshold of current, Ear-flattening","[6]; 10^-6 g in brain, 0 min",100
same,"Threshold of current, Growling","[6]; 10^-6 g in brain, 0 min",100
same,"Threshold of current, Pupil dilatation","[6]; 10^-6 g in brain, 0 min",100
same,"Threshold of current, Retreat with provocation","[6]; 10^-6 g in brain, 0 min",100
same,"Threshold of current, Ear-flattening","[6]; 10^-6 g in brain, 5 min",200
same,"Threshold of current, Growling","[6]; 10^-6 g in brain, 5 min",200
same,"Threshold of current, Pupil dilatation","[6]; 10^-6 g in brain, 5 min",200
same,"Threshold of current, Retreat with provocation","[6]; 10^-6 g in brain, 5 min",180
same,"Threshold of current, Ear-flattening","[6]; 10^-6 g in brain, 20 min",200
same,breathing of the cat,[6]; during this experiment,normal
same,"threatening, rage and retreat reactions",[6]; electrical stimulation of ventro-medial hypothalamus,clearly suppressed
same,ED50,[3]; po,100 mg/kg
same,ED50,[3]; sc,10 mg/kg
